Experimental data from US20090239845A1, “PYRAZOLE COMPOUNDS AS PROSTAGLANDIN RECEPTORS LIGANDS” (priority 2005, published 2009).
Where a name gives a salt, the structure may show the parent alone.

molecular target: T1, human EP1 receptor (Homo sapiens, UniProt P34995); assay: human EP1 calcium mobilisation assay; assay type: cell-based; settings: negative logarithm10 of the antagonist dissociation constant; CHO-K1 cells, PGE2; free bases or sodium salts; averages of a number of experiments; read-out: functional pKi value (converted)
T1 construct: expressed in transfected cells; host or cells: CHO-K1
T1 sequence (P34995 1-402): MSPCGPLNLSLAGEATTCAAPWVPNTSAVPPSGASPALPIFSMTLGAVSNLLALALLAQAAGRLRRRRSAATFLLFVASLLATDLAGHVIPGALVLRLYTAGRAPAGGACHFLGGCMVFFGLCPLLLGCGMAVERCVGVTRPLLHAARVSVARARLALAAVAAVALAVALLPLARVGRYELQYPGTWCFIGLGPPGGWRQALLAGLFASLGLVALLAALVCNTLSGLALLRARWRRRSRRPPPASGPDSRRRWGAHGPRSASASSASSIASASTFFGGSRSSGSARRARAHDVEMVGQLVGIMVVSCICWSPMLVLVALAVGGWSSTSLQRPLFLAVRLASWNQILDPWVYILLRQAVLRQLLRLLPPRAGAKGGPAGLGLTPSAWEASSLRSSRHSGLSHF
Experimental: Briefly, the antagonist properties of compounds are assessed by their ability to inhibit the mobilisation of intracellular calcium ([Ca^2+]i) in response to activation of EP1 or EP3 receptors by the natural agonist hormone prostaglandin E2 (PGE2). Increasing concentrations of antagonist reduce the amount of calcium that a given concentration of PGE2 can mobilise. The net effect is to displace the PGE2 concentration-effect curve to higher concentrations of PGE2. The amount of calcium produced is assessed using a calcium-sensitive fluorescent dye such as Fluo-4, AM and a suitable instrument such as a Fluorimetric Imaging Plate Reader (FLIPR). Increasing amounts of [Ca^2+]i produced by receptor activation increase the amount of fluorescence produced by the dye and give rise to an increasing signal. The signal may be detected using the FLIPR instrument and the data generated may be analysed with suitable curve-fitting software.
The human EP1 or EP3 calcium mobilisation assay (hereafter referred to as ‘the calcium assay’) utilises Chinese hamster ovary-K1 (CHO-K1) cells into which a stable (pCIN; BioTechniques 20 (1996): 102-110) vector containing either EP1 or EP3 cDNA has previously been transfected. Cells are cultured in suitable flasks containing culture medium such as DMEM:F-12 supplemented with 10% v/v foetal calf serum, 2 mM L-glutamine, 0.25 mg/ml geneticin, 100 μM flurbiprofen and 10 μg/ml puromycin.
For assay, cells are harvested using a proprietary reagent that dislodges cells such as Versene. Cells are re-suspended in a suitable quantity of fresh culture media for introduction into a 384-well plate. Following incubation for 24 hours at 37° C. the culture media is replaced with a medium containing Fluo-4 and the detergent pluronic acid, and a further incubation takes place. Concentrations of compounds are then added to the plate in order to construct concentration-effect curves. This may be performed on the FLIPR in order to assess the agonist properties of the compounds. Concentrations of PGE2 are then added to the plate in order to assess the antagonist properties of the compounds.
The data so generated may be analysed by means of a computerised curve-fitting routine. The concentration of compound that elicits a half-maximal inhibition of the calcium mobilisation induced by PGE2 (plC50) may then be estimated.

Ki [nM]	SMILES
> 1000	Cc1cc(NC(=O)Cc2ccncc2)nn1Cc1cc(Cl)ccc1OCc1ccccc1 [Example 149, N-[1-({5-Chloro-2-[(phenylmethyl)oxy]phenyl}methyl)-5-methyl-1H-pyrazol-3-yl]-2-(4-pyridinyl)-acetamide]
> 1000	Cc1cc(N2CCN(CC3CCCCC3)CC2=O)nn1Cc1cc(Cl)ccc1OCc1ccccc1 [Example 249, 1-[1-({5-Chloro-2-[(phenylmethyl)oxy]phenyl}methyl)-5-methyl-1H-pyrazol-3-yl]-4-(cyclohexylmethyl)-2-piperazinone hydrochloride]
> 1000	Cc1cc(N2CCN(Cc3ccc(Cl)cc3)CC2=O)nn1Cc1cc(Cl)ccc1OCC1CCCCO1 (stereo not drawn) [Example 284, 4-[(4-Chlorophenyl)methyl]-1-[1-({5-chloro-2-[(tetrahydro-2H-pyran-2-ylmethyl)oxy]phenyl}methyl)-5-methyl-1H-pyrazol-3-yl]-2-piperazinone]
> 1000	Cc1cc(N2CCN(Cc3ccccc3)CC2)nn1Cc1cc(Cl)ccc1OCc1ccccc1 [Example 288, 4-[1-({5-Chloro-2-[(phenylmethyl)oxy]phenyl}methyl)-5-methyl-1H-pyrazol-3-yl]-1-(phenylmethyl)piperazin-1-ium chloride]
> 1000	Cc1cc(C(=O)NC(C)C)nn1Cc1cc(Cl)ccc1OCc1ccccc1 [Example 290, 1-({5-Chloro-2-[(phenylmethyl)oxy]phenyl}methyl)-5-methyl-N-(1-methylethyl)-1H-pyrazole-3-carboxamide]
> 1000	Cc1cc(C(=O)Nc2ccccc2)nn1Cc1cc(Cl)ccc1OCc1ccccc1 [Example 291, 1-({5-Chloro-2-[(phenylmethyl)oxy]phenyl}methyl)-5-methyl-N-phenyl-1H-pyrazol-3-carboxamide]
> 1000	Cc1cc(C(=O)NCc2ccccc2)nn1Cc1cc(Cl)ccc1OCc1ccccc1 [Example 292, 1-({5-Chloro-2-[(phenylmethyl)oxy]phenyl}methyl)-5-methyl-N-(phenylmethyl)-1H-pyrazol-3-carboxamide]
> 1000	Cc1cc(C(=O)NCc2cccnc2)nn1Cc1cc(Cl)ccc1OCc1ccccc1 [Example 294, 1-({5-Chloro-2-[(phenylmethyl)oxy]phenyl}methyl)-5-methyl-N-(3-pyridinylmethyl)-1H-pyrazole-3-carboxamide]
> 1000	CNC(=O)c1cc(C)n(Cc2cc(Cl)ccc2OCc2ccccc2)n1 [Example 296, 1-({5-Chloro-2-[(phenylmethyl)oxy]phenyl}methyl)-N,5-dimethyl-1H-pyrazole-3-carboxamide]
> 1000	Cc1cc(C(=O)Nc2ccccn2)nn1Cc1cc(Cl)ccc1OCc1ccccc1 [Example 297, 1-({5-Chloro-2-[(phenylmethyl)oxy]phenyl}methyl)-5-methyl-N-2-pyridinyl-1H-pyrazole-3-carboxamide]
> 1000	Cc1cc(C(=O)Nc2ccccc2Cl)nn1Cc1cc(Cl)ccc1OCc1ccccc1 [Example 300, N-(2-Chlorophenyl)-1-({5-chloro-2-[(phenylmethyl)oxy]phenyl}methyl)-5-methyl-1H-pyrazole-3-carboxamide]
> 1000	Cc1cc(C(=O)Nc2ccccc2C#N)nn1Cc1cc(Cl)ccc1OCc1ccccc1 [Example 304, 1-({5-Chloro-2-[(phenylmethyl)oxy]phenyl}methyl)-N-(2-cyanophenyl)-5-methyl-1H-pyrazole-3-carboxamide]
> 1000	Cc1cc(C(=O)Nc2ccc(C#N)cc2)nn1Cc1cc(Cl)ccc1OCc1ccccc1 [Example 306, 1-({5-Chloro-2-[(phenylmethyl)oxy]phenyl}methyl)-N-(4-cyanophenyl)-5-methyl-1H-pyrazole-3-carboxamide]
> 1000	Cc1cc(C(=O)NCc2ccccn2)nn1Cc1cc(Cl)ccc1OCc1cc(F)c(F)cc1F [Example 338, 1-[(5-Chloro-2-{[(2,4,5-trifluorophenyl)methyl]oxy}phe-nyl)methyl]-5-methyl-N-(2-pyridinylmethyl)-1H-pyrazole-3-carboxamide]
> 1000	Cc1cc(C(=O)NCc2ccccn2)nn1Cc1cc(Cl)ccc1OCc1ccc(F)c(F)c1F [Example 339, 1-[(5-Chloro-2-{[(2,3,4-trifluoro-phenyl)methyl]oxy}phe-nyl)methyl]-5-methyl-N-(2-pyridinylmethyl)-1H-pyrazole-3-carboxamide]
> 1000	Cc1cc(C(=O)NCc2ccccn2)nn1Cc1cc(Cl)ccc1OCc1ccc(Cl)cc1F [Example 340, 1-[(5-Chloro-2-{[(4-chloro-2-fluorophenyl)methyl]oxy}phe-nyl)methyl]-5-methyl-N-(2-pyridinylmethyl)-1H-pyrazole-3-carboxamide]
> 1000	Cc1cc(S(=O)(=O)NC(=O)c2ccccc2)nn1Cc1cc(Cl)ccc1OCc1ccccc1 [Example 359, N-{[1-({5-Chloro-2-[(phenylmethyl)oxy]phenyl}methyl)-5-methyl-1H-pyrazol-3-yl]sulfonyl}benzamide]
> 1000	Cc1cc(-c2nc3nccnc3[nH]2)nn1Cc1cc(Cl)ccc1OCc1ccccc1 [Example 368, 2-[1-({5-Chloro-2-[(phenylmethyl)oxy]phenyl}methyl)-5-methyl-1H-pyrazol-3-yl]-1H-imidazo[4,5-b]pyrazine hydrochloride]
> 1000	Cc1cc(-c2nc3nccnc3[nH]2)nn1Cc1cc(Cl)ccc1OCC(C)C [Example 371, 2-[1-({5-Chloro-2-[(2-methylpropyl)oxy]phenyl}methyl)-5-methyl-1H-pyrazol-3-yl]-1H-imidazo[4,5-b]pyrazine hydrochloride]
> 1000	Cc1cc(-c2nc3cc(F)c(F)cc3[nH]2)nn1Cc1cc(Cl)ccc1OCC(C)C [Example 376, 2-[1-({5-Chloro-2-[(2-methylpropyl)oxy]phenyl}methyl)-5-methyl-1H-pyrazol-3-yl]-5,6-difluoro-1H-benzimidazole]
> 1000	Cc1cc(-c2nc3ccccc3[nH]2)nn1Cc1cc(Cl)ccc1OCc1ccccc1 [Example 385, 2-[1-({5-Chloro-2-[(phenylmethyl)oxy]phenyl}methyl)-5-methyl-1H-pyrazol-3-yl]-1H-benzimidazole]
> 1000	CNCc1ccc(NC(=O)c2cc(C)n(Cc3cc(Cl)ccc3OCC(C)C)n2)c(OC)c1 [Example 412, 1-({5-Chloro-2-[(2-methylpropyl)oxy]phenyl}methyl)-5-methyl-N-[4-[(methylamino)methyl]-2-(methyloxy)phenyl]-1H-pyrazole-3-carboxamide hydrochloride]
> 1000	CCN(CC)Cc1ccc(C(=O)Nc2cc(C)n(Cc3cc(Cl)ccc3OCC(C)C)n2)cc1F [Example 435, N-[1-({5-chloro-2-[(2-methylpropyl)oxy]phenyl}methyl)-5-methyl-1H-pyrazol-3-yl]-4-[(diethylamino)methyl]-3-fluorobenzamide hydrochloride]
> 1000	Cc1cc(NC(=O)c2ccc(CN3CCCCC3)c(F)c2)nn1Cc1cc(Cl)ccc1OCC(C)C [Example 436, N-[1-({5-chloro-2-[(2-methylpropyl)oxy]phenyl}methyl)-5-methyl-1H-pyrazol-3-yl]-3-fluoro-4-(1-piperidinylmethyl)benzamide hydrochloride]
> 1000	Cc1cc(NC(=O)c2ccc(CNCC(C)C)c(F)c2)nn1Cc1cc(Cl)ccc1OCC(C)C [Example 438, N-[1-({5-chloro-2-[(2-methylpropyl)oxy]phenyl}methyl)-5-methyl-1H-pyrazol-3-yl]-3-fluoro-4-{[(2-methylpropyl)amino]methyl}benzamide hydrochloride]
> 1000	Cc1cc(NC(=O)c2c(F)cc(CNC(C)C)cc2F)nn1Cc1cc(Cl)ccc1OCC(C)C [Example 440, N-[1-({5-chloro-2-[(2-methylpropyl)oxy]phenyl}methyl)-5-methyl-1H-pyrazol-3-yl]-2,6-difluoro-4-{[(1-methylethyl)amino]methyl}benzamide hydrochloride]
> 1000	Cc1cc(-c2cnc(-n3cccn3)[nH]2)nn1Cc1cc(Cl)ccc1OCc1ccccc1 [Example 481, 1-({5-Chloro-2-[(phenylmethyl)oxy]phenyl}methyl)-5-methyl-3-[2-(1H-pyrazol-1-yl)-1H-imidazol-4-yl]-1H-pyrazole hydrochloride]
